Measured values published in US20230136600A1, “Method and device for screening antigen epitope polypeptide” (priority 2020, published 2023).

Legend:
Balb/c mice = test: Polypeptide chip-based vaccine immunogenicity scoring system; assay type: in vivo; parameters: key to A2: whether the 95 percentile of the last sampling is increased compared with the end point: Y = rise; N = no rise; settings: for A: 95 percentile grouping number score / B: Mouse performance score: total score = 5
[1] = system: novel coronavirus (live coronavirus), vero cells; test: In-vitro live virus neutralization experiment with serum of immunized mice (CPE method); assay type: in vivo, SARS-CoV-2
[2] = Embodiment III, polypeptide-KLH
[3] = Embodiment III, polypeptide-KLH, Mix1-10
[4] = Embodiment III, polypeptide-KLH, value of the whole mix
[5] = adjuvant AddaVax, 7 peptides co-immunized in mice
[6] = adjuvant Adju-Phos, 7 peptides co-immunized in mice
[7] = adjuvant Alhydrogel, 7 peptides co-immunized in mice
[8] = adjuvant Imjet Alumn, 7 peptides co-immunized in mice
[9] = adjuvant MA103A, 7 peptides co-immunized in mice
[10] = adjuvant MA103B, 7 peptides co-immunized in mice

## SNLKPFER (SARS-CoV-2) [SEQ ID NO:36]
Balb/c mice; Embodiment II, Combination 2
  A2: whether the 95 percentile of the last sampling is increased compared with the end point: Y
  B1: D 0-D 14 95 percentile rise in the number of mice: 5
  B2: D 0-D 21 95 percentile rise in the number of mice: 5
  B3: D 14-D 21 95 percentile rise in the number of mice: 0
  B4: D 21-D 28 95 percentile rise in the number of mice: 2
  A: 95 percentile grouping number score: 1.5
  B: Mouse performance score: 3.4
Balb/c mice; Embodiment II, Combination 2, A*3 + B*2 + C*1
  Total single peptide: 11.8
Balb/c mice; Embodiment II, mice immunized with Combination 2
  A1: difference between a highest median and a D 0 median (95 percentile): 0.1
Balb/c mice; [2]
  B1: D 0-D 14 95 percentile rise in the number of mice: 3
  B2: D 0-D 21 95 percentile rise in the number of mice: 2
  B3: D 14-D 21 95 percentile rise in the number of mice: 0
  B4: D 21-D 28 95 percentile rise in the number of mice: 2
  A: 95 percentile grouping number score: 4.5
  B: Mouse performance score: 1.7
Balb/c mice; [3]
  A1: difference between a highest median and a D 0 median (95 percentile): 0.10
  A2: whether the 95 percentile of the last sampling is increased compared with the end point: Y
Balb/c mice; Embodiment III, polypeptide-KLH, A*3 + B*2 + C*1
  Total single peptide: 17.4
Balb/c mice; [4]
  C1: #A timing-sequence response peptide fragment set: 511
  C2: #B vaccine specificity peptide fragment set: 364
  C3: Intersection of A and B: 1
  C4: Percentage of the intersection in set B: 0.275
  C: Timing-sequence response and specificity score: 0.5
Balb/c mice; [5]
  1) 95 percentile grouping number A: 3.5
  1) 95 percentile grouping number A1: 0.04
  2) Mouse performance B: 2.5
  2) Mouse performance B1: 3
  2) Mouse performance B2: 4
  2) Mouse performance B3: 2
  3) Timing-sequence response and specificity C: 0
  3) Timing-sequence response and specificity C1: 237
  3) Timing-sequence response and specificity C2: 1244
  3) Timing-sequence response and specificity C3: 0
  3) Timing-sequence response and specificity C4: 0.000
  Total single peptide: 15.5
Balb/c mice; [6]
  1) 95 percentile grouping number A: 3.5
  1) 95 percentile grouping number A1: 0.05
  2) Mouse performance B: 1.8
  2) Mouse performance B1: 2
  2) Mouse performance B2: 2
  2) Mouse performance B3: 2
  3) Timing-sequence response and specificity C: 0
  3) Timing-sequence response and specificity C1: 203
  3) Timing-sequence response and specificity C2: 1244
  3) Timing-sequence response and specificity C3: 0
  3) Timing-sequence response and specificity C4: 0.000
  Total single peptide: 14.1
Balb/c mice; [7]
  1) 95 percentile grouping number A: 0
  1) 95 percentile grouping number A1: 0
  2) Mouse performance B: 1.9
  2) Mouse performance B1: 3
  2) Mouse performance B2: 1
  2) Mouse performance B3: 2
  3) Timing-sequence response and specificity C: 1
  3) Timing-sequence response and specificity C1: 123
  3) Timing-sequence response and specificity C2: 1244
  3) Timing-sequence response and specificity C3: 2
  3) Timing-sequence response and specificity C4: 0.161
  Total single peptide: 4.3
Balb/c mice; [8]
  1) 95 percentile grouping number A: 4.5
  1) 95 percentile grouping number A1: 0.065
  2) Mouse performance B: 2.5
  2) Mouse performance B1: 5
  2) Mouse performance B2: 3
  2) Mouse performance B3: 1
  3) Timing-sequence response and specificity C: 1
  3) Timing-sequence response and specificity C1: 100
  3) Timing-sequence response and specificity C2: 1244
  3) Timing-sequence response and specificity C3: 3
  3) Timing-sequence response and specificity C4: 0.241
  Total single peptide: 19
Balb/c mice; [9]
  1) 95 percentile grouping number A: 4.5
  1) 95 percentile grouping number A1: 0.065
  2) Mouse performance B: 2.4
  2) Mouse performance B1: 4
  2) Mouse performance B2: 4
  2) Mouse performance B3: 1
  3) Timing-sequence response and specificity C: 1
  3) Timing-sequence response and specificity C1: 260
  3) Timing-sequence response and specificity C2: 1244
  3) Timing-sequence response and specificity C3: 3
  3) Timing-sequence response and specificity C4: 0.241
  Total single peptide: 18.8
Balb/c mice; [10]
  1) 95 percentile grouping number A: 5
  1) 95 percentile grouping number A1: 0.06
  2) Mouse performance B: 3.2
  2) Mouse performance B1: 4
  2) Mouse performance B2: 4
  2) Mouse performance B3: 3
  3) Timing-sequence response and specificity C: 0
  3) Timing-sequence response and specificity C1: 153
  3) Timing-sequence response and specificity C2: 1244
  3) Timing-sequence response and specificity C3: 0
  3) Timing-sequence response and specificity C4: 0.000
  Total single peptide: 21.4
[1]; Embodiment I: single peptide 100 μg + MF59 at Day 0, 14, 28, Balb/c mice, serum Day 35
  Neutralizing antibody positive rate (%): 40%
[1]; Embodiment I: single peptide vaccines + MF59
  Neutralizing activity of serum to the novel coronavirus (in words): optimal neutralization effect
